Laboratory results published in ChEMBL document CHEMBL1201862, “PubChem BioAssay data set” (2004).
The source made the active and inactive calls.

Experiments:
[1] = biological target: Peroxisome proliferator-activated receptor gamma/Nuclear receptor coactivator 2 (Homo sapiens, UniProt P37231); format: functional;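 also: agonist potency for raising coactivator recruitment to the receptor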
[2] = biological target: Peroxisome proliferator-activated receptor gamma/Nuclear receptor coactivator 1 (Homo sapiens, UniProt P37231); format: functional;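 also: agonist potency as compounds enhance coactivator SRC-1 recruitment to PPARgamma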
[3] = biological target: Peroxisome proliferator-activated receptor gamma/Nuclear receptor coactivator 3 (Homo sapiens, UniProt P37231); format: functional;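 also: agonist potency for raising coactivator recruitment to the receptor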
NADPH oxidase 1 = biological target: T1, NADPH oxidase 1 (Homo sapiens, UniProt Q9Y5S8); format: functional, cell-based;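 also: Cell-based assay with luminescence read-out, IC50 derived from inhibitor dose-response curves; intracellular ROS from endogenous NOX1 in intact HT29 colon cancer cells; potency of inhibitors that lower the ROS luminescence signal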
T1 sequence (Q9Y5S8 whole entry): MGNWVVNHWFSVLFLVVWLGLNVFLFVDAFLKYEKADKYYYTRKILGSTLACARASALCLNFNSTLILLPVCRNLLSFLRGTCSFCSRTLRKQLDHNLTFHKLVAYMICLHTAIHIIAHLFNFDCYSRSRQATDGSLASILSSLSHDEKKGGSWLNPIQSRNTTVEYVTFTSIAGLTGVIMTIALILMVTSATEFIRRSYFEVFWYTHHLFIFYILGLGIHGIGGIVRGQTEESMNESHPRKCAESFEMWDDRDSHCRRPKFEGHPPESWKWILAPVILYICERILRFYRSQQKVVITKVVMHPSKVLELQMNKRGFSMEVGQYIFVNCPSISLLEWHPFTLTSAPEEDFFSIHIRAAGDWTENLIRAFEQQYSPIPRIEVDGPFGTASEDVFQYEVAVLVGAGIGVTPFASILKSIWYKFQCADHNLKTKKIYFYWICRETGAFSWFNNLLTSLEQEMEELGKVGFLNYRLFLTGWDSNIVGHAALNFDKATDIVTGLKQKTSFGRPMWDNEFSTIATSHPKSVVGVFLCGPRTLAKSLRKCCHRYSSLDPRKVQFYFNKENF

[4] = biological target: Beta-2 adrenergic receptor (Homo sapiens, UniProt P07550); assay: ADRB2 activation measured by internalization – cell-based, FAP fluorogen, flow cytometry, cherry pick 1, dose response (AID 588763); format: functional
Bcl-2-like protein 10 = biological target: T2, Bcl-2-like protein 10 (Homo sapiens, UniProt Q9HD36); assay: Concentration-response of Bcl-B inhibitors by biochemical FP with TR3 (AID 1243); format: functional
T2 sequence (Q9HD36 whole entry): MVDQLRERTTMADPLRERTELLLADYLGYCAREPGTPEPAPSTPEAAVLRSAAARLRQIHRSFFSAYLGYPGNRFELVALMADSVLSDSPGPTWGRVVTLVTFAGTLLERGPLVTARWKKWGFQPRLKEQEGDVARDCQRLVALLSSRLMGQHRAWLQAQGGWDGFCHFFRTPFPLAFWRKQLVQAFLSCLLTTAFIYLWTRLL

Estrogen receptor beta [5] = biological target: T3, Estrogen receptor beta (Homo sapiens, UniProt Q92731);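 also: recombinant ER-beta bound to coactivator SRC1 peptide in presence of estradiol agonist; inhibitors block coactivator peptide binding and lower the FRET signal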
Estrogen receptor beta [6] = biological target: T3, Estrogen receptor beta; assay: blockers of SRC-3 recruitment to ERβ – biochemical, ELISA, streptavidin-HRP readout, orthogonal assay, confirmation (AID 1060)
[7] = Luminescence Cell-Based Dose Confirmation HTS to Identify Inhibitors of Polyadenylation.; format: functional
[8] = biological target: T4, Corticotropin-releasing factor receptor 2/Corticotropin-releasing factor-binding protein (Homo sapiens, UniProt P24387+Q13324); assay: activators of CRF receptor 2 with binding protein – uHTS hits, confirmation (AID 602473); format: functional; settings: read-out: EC50_Mean
T4 sequence (Q13324 whole entry): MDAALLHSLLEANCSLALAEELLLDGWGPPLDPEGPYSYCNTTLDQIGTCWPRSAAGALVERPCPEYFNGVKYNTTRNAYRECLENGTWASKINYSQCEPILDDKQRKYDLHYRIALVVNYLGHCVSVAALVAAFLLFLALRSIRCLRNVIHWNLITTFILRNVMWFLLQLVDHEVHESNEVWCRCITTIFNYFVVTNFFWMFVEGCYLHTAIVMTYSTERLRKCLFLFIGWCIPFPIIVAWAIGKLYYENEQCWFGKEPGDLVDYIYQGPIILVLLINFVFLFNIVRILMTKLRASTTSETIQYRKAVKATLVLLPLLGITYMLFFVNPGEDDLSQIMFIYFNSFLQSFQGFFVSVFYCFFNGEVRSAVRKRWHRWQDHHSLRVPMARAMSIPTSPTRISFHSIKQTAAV
T4 sequence (P24387 whole entry): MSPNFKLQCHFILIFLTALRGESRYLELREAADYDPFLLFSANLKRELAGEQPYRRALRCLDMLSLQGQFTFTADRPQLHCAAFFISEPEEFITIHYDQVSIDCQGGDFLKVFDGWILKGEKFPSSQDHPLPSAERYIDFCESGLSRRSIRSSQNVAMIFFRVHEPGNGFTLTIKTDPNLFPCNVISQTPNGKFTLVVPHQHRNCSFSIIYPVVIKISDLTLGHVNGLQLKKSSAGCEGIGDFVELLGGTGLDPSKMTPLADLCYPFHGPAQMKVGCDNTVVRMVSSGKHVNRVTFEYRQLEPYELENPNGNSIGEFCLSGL

[9] = viability of PTEN-deleted HCT116 cells – cell-based, HCT116 PTEN knockout, dose response (AID 1047); format: functional;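 also: HCT116 colon tumor cells with PTEN knocked out; cells exposed to compound for 60 hours before readout; potency for loss of cell viability measured by luminescence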
[10] = viability of HCT116 lacking mutant beta-catenin – cell-based, human colon tumor, dose response (AID 1045); format: functional;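 also: HCT116 colon tumor cells with beta catenin knocked out; cells exposed to compound for 60 hours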
[11] = biological target: Scavenger receptor class B member 1 (Mus musculus, UniProt Q61009); assay: mouse SR-BI DiI-HDL uptake blockers – ldlA[mSR-BI] cells, fluorescence, cherry pick, dose response (AID 493194); format: functional, cell-based;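 also: cellular uptake of fluorescent DiI-labeled HDL measured as cell fluorescence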
[12] = reduction of Shn3 3'UTR-driven luciferase in osteoblasts – cell-based, Clone20 osteoblasts, firefly luciferase, cherry-picked, dose response (AID 624132); format: functional;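 also: firefly luciferase luminescence from reporter carrying the Shn3 3'UTR in osteoblasts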
[13] = loss of viability in HepG2 cells – cell-based, CellTiter-Glo, cherry-picked, cytotoxicity control for Shn3 inhibitor project, dose response (AID 624134); format: functional
[14] = non-specific 3'UTR reporter inhibition in Clone20-Shn3RL – cell-based, Renilla luciferase, cherry-picked, counter-screen for Shn3 inhibitor project, dose response (AID 624133); format: functional
[15] = biological target: T5, Tyrosine-protein phosphatase non-receptor type 7 (Homo sapiens, UniProt P35236); format: functional
T5 sequence (P35236 whole entry): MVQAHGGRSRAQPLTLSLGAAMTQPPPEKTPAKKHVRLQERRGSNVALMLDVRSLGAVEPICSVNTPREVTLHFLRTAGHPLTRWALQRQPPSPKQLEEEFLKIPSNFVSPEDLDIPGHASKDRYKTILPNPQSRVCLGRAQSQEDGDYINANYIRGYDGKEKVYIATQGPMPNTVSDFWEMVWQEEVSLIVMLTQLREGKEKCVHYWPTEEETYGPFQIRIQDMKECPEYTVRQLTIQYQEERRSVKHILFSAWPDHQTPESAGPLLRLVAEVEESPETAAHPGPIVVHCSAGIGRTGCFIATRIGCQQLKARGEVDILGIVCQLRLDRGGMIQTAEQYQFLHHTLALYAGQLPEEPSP

[16] = biological target: Glyceraldehyde-3-phosphate dehydrogenase (Homo sapiens, UniProt P04406)
[17] = biological target: T6, Dual specificity protein phosphatase 6 (Rattus norvegicus, UniProt Q64346)
T6 sequence (Q64346 whole entry): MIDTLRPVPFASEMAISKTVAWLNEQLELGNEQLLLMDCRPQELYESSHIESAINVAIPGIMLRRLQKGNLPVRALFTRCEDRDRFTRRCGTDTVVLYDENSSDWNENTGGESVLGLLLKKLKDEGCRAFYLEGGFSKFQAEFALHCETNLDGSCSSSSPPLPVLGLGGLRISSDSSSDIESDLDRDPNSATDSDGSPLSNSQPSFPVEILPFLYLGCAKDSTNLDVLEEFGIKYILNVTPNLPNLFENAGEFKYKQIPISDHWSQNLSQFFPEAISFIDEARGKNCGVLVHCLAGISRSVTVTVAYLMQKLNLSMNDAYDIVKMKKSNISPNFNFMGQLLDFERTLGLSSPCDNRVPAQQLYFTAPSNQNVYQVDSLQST

[18] = biological target: T6, Dual specificity protein phosphatase 6; format: functional
Mucolipin-3 = Mucolipin-3 (Homo sapiens, UniProt Q8TDD5); assay: Dose response cell-based high-throughput screening assay for agonists of the transient receptor potential channel ML3 (TRPML3). [Related pubchem assays: 1526, 1424, 1448 ]; format: functional
Ion channel NompC = Ion channel NompC (Danio rerio, UniProt Q7T1G6); assay: Fluorescence counterscreen assay for TRPML3 agonists: dose response cell-based high-throughput screening assay to identify agonists of the transient receptor potential channel N1 (TRPN1). [Related pubchem assays: 1526, 1424, 1448 ]; format: functional
Estrogen receptor = biological target: T7, Estrogen receptor (Homo sapiens, UniProt P03372);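 also: potency for inhibiting coactivator peptide recruitment to the receptor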
T7 sequence (P03372 whole entry): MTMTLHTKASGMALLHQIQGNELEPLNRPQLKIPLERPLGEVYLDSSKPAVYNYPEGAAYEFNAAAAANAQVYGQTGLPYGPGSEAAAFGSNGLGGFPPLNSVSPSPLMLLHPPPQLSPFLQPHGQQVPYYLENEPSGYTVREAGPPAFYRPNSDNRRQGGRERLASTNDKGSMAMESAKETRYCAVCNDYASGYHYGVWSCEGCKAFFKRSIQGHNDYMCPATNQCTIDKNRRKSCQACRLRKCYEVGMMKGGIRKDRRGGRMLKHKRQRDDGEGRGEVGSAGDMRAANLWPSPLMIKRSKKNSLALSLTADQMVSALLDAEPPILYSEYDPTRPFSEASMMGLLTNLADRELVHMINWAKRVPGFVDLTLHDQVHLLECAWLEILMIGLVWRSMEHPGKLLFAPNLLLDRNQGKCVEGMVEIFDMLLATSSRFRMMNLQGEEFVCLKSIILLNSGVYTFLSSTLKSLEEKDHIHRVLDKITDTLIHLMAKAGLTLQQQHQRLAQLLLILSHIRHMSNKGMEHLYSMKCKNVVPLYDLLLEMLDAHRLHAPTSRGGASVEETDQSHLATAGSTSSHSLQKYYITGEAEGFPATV

Melanocortin receptor 4 = Melanocortin receptor 4 (Homo sapiens, UniProt P32245); format: functional, cell-based;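 also: Cell-based assay with luminescence read-out, confirmatory dose-response testing for agonist activity of biased ligands at MC4R; human U2OS cells with tagged receptor and beta-arrestin; potency of agonists that increase receptor coupling to beta-arrestin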

T3 sequence (Q92731 whole entry): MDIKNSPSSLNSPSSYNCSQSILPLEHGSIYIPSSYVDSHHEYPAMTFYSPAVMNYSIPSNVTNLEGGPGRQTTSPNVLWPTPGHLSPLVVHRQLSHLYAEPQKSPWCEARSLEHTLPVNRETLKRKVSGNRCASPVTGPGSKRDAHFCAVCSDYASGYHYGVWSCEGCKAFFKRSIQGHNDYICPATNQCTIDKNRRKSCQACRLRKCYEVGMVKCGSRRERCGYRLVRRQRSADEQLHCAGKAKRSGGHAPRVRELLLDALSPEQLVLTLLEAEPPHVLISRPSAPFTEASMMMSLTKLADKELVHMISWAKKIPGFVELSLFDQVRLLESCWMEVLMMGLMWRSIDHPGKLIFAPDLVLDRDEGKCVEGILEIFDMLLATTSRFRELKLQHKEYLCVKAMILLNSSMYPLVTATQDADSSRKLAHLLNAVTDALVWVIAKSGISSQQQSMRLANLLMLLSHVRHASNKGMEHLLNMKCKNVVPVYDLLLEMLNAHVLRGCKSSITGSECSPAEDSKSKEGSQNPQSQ
Chain of Scavenger receptor class B member 1 (Q61009 whole entry): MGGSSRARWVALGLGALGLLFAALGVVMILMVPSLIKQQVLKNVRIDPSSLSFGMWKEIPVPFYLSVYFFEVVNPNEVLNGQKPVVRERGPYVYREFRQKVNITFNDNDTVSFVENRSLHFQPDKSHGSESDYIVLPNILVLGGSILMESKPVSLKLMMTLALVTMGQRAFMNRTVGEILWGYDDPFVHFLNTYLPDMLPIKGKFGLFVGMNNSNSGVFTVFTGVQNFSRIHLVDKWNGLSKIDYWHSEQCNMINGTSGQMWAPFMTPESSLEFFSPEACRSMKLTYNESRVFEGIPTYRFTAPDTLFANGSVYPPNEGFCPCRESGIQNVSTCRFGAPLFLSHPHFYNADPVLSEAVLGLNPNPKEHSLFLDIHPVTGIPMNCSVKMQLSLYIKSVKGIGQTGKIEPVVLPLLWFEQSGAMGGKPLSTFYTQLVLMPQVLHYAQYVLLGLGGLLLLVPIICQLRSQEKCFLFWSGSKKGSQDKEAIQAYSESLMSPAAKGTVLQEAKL
Chain of Ion channel NompC (Q7T1G6 whole entry): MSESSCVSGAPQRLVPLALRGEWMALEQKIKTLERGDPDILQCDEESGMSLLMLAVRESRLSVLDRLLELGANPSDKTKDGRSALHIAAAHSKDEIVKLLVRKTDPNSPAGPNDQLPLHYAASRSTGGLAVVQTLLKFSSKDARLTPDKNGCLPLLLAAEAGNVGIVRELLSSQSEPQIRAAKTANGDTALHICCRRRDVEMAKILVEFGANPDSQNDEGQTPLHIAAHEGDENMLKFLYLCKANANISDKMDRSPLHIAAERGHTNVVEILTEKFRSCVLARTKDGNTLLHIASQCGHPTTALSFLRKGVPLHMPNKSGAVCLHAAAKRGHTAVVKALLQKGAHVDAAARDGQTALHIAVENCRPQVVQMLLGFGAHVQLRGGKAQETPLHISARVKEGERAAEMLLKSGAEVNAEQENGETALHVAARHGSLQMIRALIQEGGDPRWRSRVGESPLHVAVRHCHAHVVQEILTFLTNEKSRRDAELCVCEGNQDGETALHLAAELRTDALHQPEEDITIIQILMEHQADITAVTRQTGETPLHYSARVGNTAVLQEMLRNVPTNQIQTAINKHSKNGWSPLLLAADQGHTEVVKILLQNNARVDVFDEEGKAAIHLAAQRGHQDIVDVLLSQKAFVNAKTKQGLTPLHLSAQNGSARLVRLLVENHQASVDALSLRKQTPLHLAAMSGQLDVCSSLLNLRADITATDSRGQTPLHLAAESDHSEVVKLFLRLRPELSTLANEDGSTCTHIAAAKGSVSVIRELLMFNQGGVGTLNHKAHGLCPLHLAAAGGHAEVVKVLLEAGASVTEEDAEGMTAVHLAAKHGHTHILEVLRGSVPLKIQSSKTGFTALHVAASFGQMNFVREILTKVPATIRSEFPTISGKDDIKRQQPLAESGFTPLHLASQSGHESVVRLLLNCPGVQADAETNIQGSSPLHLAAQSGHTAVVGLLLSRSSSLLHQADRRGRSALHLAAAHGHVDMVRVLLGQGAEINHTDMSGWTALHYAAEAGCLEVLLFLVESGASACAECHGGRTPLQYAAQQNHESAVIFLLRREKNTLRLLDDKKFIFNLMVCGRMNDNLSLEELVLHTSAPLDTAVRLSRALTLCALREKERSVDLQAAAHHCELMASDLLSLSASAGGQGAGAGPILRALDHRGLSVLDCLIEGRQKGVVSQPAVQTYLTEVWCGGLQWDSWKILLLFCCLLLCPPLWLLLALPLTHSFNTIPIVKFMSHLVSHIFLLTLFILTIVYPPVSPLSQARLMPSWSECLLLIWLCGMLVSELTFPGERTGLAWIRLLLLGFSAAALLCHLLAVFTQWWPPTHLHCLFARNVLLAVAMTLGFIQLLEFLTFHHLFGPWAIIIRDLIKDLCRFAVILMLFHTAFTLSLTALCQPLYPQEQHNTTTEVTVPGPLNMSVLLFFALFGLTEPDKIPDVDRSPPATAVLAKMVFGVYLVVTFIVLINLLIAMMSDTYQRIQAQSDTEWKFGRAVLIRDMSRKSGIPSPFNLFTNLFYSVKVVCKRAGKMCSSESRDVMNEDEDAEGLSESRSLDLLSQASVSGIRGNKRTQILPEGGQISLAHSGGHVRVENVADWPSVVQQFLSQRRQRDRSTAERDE
Chain of Peroxisome proliferator-activated receptor gamma/Nuclear receptor coactivator 2 (P37231 whole entry): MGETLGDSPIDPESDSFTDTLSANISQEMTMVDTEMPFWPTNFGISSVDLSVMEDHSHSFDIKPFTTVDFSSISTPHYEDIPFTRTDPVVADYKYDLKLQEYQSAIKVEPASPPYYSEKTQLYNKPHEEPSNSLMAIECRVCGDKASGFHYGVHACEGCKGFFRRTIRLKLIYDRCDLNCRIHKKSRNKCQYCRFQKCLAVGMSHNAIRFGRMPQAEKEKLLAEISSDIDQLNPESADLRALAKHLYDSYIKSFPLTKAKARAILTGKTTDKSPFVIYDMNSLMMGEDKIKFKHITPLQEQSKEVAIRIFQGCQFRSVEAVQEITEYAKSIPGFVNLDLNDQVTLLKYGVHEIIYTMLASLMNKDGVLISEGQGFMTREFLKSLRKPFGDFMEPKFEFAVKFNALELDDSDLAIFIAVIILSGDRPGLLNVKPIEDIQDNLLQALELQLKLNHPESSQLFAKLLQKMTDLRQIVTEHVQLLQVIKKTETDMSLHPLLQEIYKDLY
Chain of Peroxisome proliferator-activated receptor gamma/Nuclear receptor coactivator 2 (Q15596 whole entry, further chain): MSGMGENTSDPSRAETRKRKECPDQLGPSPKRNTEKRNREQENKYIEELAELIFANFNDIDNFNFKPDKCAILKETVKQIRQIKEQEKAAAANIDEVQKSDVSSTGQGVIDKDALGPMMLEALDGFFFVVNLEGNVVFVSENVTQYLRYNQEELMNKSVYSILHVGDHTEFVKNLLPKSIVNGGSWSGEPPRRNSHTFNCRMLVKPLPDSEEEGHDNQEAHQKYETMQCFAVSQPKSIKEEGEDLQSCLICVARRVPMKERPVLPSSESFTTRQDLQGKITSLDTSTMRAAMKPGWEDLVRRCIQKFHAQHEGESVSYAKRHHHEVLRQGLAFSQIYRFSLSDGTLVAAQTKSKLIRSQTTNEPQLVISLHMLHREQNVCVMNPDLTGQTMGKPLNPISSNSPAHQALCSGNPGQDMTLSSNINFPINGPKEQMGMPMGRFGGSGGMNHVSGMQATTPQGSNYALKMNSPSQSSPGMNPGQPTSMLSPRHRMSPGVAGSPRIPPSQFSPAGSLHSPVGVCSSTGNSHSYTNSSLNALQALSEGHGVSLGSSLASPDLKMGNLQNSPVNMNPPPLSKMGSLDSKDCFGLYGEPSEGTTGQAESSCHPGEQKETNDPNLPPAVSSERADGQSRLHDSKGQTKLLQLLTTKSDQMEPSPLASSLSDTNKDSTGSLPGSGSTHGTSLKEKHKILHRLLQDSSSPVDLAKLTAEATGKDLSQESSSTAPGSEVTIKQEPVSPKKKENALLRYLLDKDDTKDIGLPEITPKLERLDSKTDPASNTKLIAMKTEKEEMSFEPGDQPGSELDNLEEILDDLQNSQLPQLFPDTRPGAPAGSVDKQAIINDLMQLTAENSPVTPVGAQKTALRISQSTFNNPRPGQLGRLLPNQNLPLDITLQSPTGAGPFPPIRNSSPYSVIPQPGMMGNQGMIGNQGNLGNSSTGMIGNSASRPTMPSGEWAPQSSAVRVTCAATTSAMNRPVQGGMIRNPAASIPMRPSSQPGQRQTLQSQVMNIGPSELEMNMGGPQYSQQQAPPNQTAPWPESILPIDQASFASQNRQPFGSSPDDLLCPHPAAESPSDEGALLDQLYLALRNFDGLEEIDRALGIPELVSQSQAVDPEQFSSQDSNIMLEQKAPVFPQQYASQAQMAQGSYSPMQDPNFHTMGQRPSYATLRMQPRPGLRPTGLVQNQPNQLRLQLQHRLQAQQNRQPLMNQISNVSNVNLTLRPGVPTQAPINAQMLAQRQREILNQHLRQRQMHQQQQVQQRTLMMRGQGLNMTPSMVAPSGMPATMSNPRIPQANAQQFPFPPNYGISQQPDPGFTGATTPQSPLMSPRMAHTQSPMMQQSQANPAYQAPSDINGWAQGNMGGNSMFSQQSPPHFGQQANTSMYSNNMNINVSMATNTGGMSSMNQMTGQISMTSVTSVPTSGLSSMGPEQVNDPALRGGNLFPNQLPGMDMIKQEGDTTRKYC
Chain of Glyceraldehyde-3-phosphate dehydrogenase (P04406 whole entry): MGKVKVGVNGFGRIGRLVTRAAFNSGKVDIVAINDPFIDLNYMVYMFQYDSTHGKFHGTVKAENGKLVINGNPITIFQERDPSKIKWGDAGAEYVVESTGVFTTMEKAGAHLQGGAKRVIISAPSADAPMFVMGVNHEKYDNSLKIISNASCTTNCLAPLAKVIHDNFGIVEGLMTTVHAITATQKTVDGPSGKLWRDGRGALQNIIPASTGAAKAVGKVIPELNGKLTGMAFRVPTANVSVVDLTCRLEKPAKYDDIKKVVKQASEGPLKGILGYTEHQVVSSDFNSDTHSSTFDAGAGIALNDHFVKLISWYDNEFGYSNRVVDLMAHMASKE

Structure (SMILES): COc1cc(C(=S)N2CCOCC2)cc(OC)c1OC(=O)c1cc([N+](=O)[O-])c(C)c([N+](=O)[O-])c1
- EC50 [1]: > 79.4 µM (not active)
- EC50 [2]: > 79.4 µM (not active)
- EC50 [3]: > 79.4 µM (not active)

Structure (SMILES): O=C(Cc1ccccc1)NNC(=O)Cc1ccccc1
- IC50 (NADPH oxidase 1): > 17 µM (not active)

Structure (SMILES): CCCCCCN1C(=O)NC(=O)/C(=C\Nc2c(C)n(C)n(-c3ccccc3)c2=O)C1=O
- EC50 [1]: > 79.4 µM (not active)
- EC50 [2]: > 79.4 µM (not active)
- EC50 [3]: > 79.4 µM (not active)
- EC50 [4]: 1.31 µM (active)

Structure (SMILES): Cc1cc(C)nc(/N=C(\N)Nc2cccc(N)c2)n1
- EC50 (Bcl-2-like protein 10): 5.45 µM (active)

Structure (SMILES): c1ccc(-c2nnc3sc(Cc4cccs4)nn23)cc1
- IC50 (Estrogen receptor beta [5]): 21.6 µM (active)
- IC50 (Estrogen receptor beta [6]): > 109 µM (not active)

Structure (SMILES): O=C1C=CC2=C3Oc4c(ccc5cc(O)ccc45)C(c4ccccc4C(=O)O)C3C=CC2=C1 (stereo not drawn)
- EC50 (Bcl-2-like protein 10): 1.68 µM (active)

Structure (SMILES): C/C(=C\C=C(C#N)C#N)c1cc(C#N)c(N)o1
- EC50 [7]: 11.1 µM (active)
- EC50 [8]: 5.13 µM (active)

Structure (SMILES): O=C(Nc1ccc(Cl)c(Cl)c1)Nc1ccc(N2CCCC2)c(S(=O)(=O)Nc2ccccc2Cl)c1
- EC50 [9]: 3.35 µM (active)
- EC50 [10]: 3.8 µM (active)
- AC50 [11]: 12.7 µM (active)
- AC50 [12]: 5.13 µM (active)
- AC50 [13]: 27 µM (active)
- AC50 [14]: 11.4 µM (active)

Structure (SMILES): CCCCCCCCCCCCCCCCCCC#CCCCCCCCCCCCC(=O)O
- IC50 [15]: 28.3 µM (active)
- IC50 [16]: > 100 µM (not active)
- IC50 [17]: > 100 µM (inactive)
- IC50 [18]: > 100 µM (inactive)

Structure (SMILES): Cn1c(=O)n(-c2ccc(Cl)cc2)c(=O)n([C@@H](Cc2ccccc2)C(N)=O)c1=O
- IC50 [15]: > 100 µM (not active)
- IC50 [16]: > 100 µM (not active)
- IC50 [17]: > 100 µM (inactive)
- IC50 [18]: > 100 µM (inactive)

Structure (SMILES): Cc1ccc(S(=O)(=O)N2C(=S)SCC2(C)C)cc1
- EC50 (Mucolipin-3): 7.22 µM (active)
- EC50 (Ion channel NompC): > 29.9 µM (not active)

Structure (SMILES): CCOc1ccccc1N1CCN(S(=O)(=O)c2ccc(Cl)s2)CC1
- EC50 (Mucolipin-3): 8.16 µM (active)
- EC50 (Ion channel NompC): > 29.9 µM (not active)

Structure (SMILES): O=C(NNC(=O)c1cc(Br)ccc1O)c1csc(N2CCOCC2)n1
- AC50 [11]: 2.75 µM (active)

Structure (SMILES): CCN1C(=O)/C(=C2/Sc3ccc(OC)cc3N2C)S/C1=N\c1cccc(O)c1
- IC50 (Estrogen receptor): > 50 µM (not active)
- IC50 (Estrogen receptor beta [5]): > 50 µM (not active)
- IC50 (Estrogen receptor beta [6]): 0.0604 µM (not active)
- EC50 (Melanocortin receptor 4): > 89.2 µM (inactive)

Structure (SMILES): CN(C)CCCN1c2ccccc2Sc2ccc(Cl)cc21 [CHLORPROMAZINE]
- IC50 (NADPH oxidase 1): > 17 µM (not active)
